Here are results for 69 molecules from PubChem BioAssay AID1159557 (GlaxoSmithKline (GSK), 2015).

Active and inactive are the calls of the source. No rule for the calls is given here.

For this experiment, the system named is Trypanosoma brucei growth inhibition. Nature of the experiment: T. brucei growth inhibition (AID 1159557).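 Also: parasites exposed to compound for 48 h before the resazurin readout.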
For the molecule `c1ccc(-c2nc(NCc3ccco3)c3ccccc3n2)nc1`, the IC50 was > 40 µM (inactive). The same measure for `Cc1ncsc1CNc1cnc(-c2ccc3c(c2)OCCO3)c(-c2cnn(C)c2)c1`: 0.13 µM; for `CN(C(=O)Nc1ccc2c(c1)CCN(C1CCC1)CC2)c1ccc(C#N)cc1`: 0.2 µM; for `Cc1ccc2c(c1)-c1onc(C(=O)N3CCCCC3c3cccnc3)c1CO2` (centres undefined): 40 µM. The same measure for `O=C1CSC(c2cccnc2)N1c1ccc(Cl)cc1Cl` (centres undefined): > 40 µM (inactive); for `CN(Cc1ccc(F)cc1)c1ccc(OCC(=O)N2CCCCC2c2cccnc2)nn1` (centres undefined): > 40 µM (inactive); for `O=C(NCCc1csc(-c2ccc(F)cc2)n1)c1cccs1`: 0.25 µM. Take `CC(C)n1c(-c2nonc2N)nc2cccc(OCCN3CCCC3)c21`: the concentration for half-maximal inhibition (IC50) was 0.79 µM. For `COc1ccc(CNc2cc(C3CC3)nc(-c3nccn3C)n2)cc1`, the IC50 was 1.3 µM. The same measure for `Cn1nc(-c2ccc(NC(=O)Cc3ccccc3Cl)cc2)c2c(N)ncnc21`: 0.4 µM; for `CN(C)CCOc1ccc(N2CCN(S(=O)(=O)c3ccc(Cl)cc3)CC2)cc1`: 20 µM; for `CC(Cn1ccnc1)NC(=O)C=Cc1ccc(Cl)cc1` (centres undefined): > 40 µM (inactive).

With `CCCc1cc(N)nc(-c2cc(CCC)cc(N)n2)c1`, the half-inhibitory concentration (IC50) is 3.2 µM. With `Cc1ccc(-c2csc(NC(=O)C=Cc3ccc(S(=O)(=O)N4CCOCC4)cc3)n2)o1`, the IC50 was 3.2 µM. Turning to `CC(C)Nc1nccc(-c2c(-c3ccc(F)cc3)ncn2C2CCOCC2)n1`, the IC50 is 5 µM.

In the case of `Cc1nc2c(-c3nc(-c4ccc(N)cc4)n[nH]3)cccn2c1C`, the IC50 was 13 µM. The same measure for `COc1cc2c(cc1OC)[C@H]1[C@@H](C)c3ccc(OC)c(OC)c3CN1CC2`: 25 µM; for `COc1ccc(C(=O)Nc2cc(C(F)(F)F)ccc2N2CCOCC2)c(OC)c1`: 10 µM; for `CCCCN(C(=O)c1ccc(NC(=O)C(C)C)cc1)c1ccccc1`: 16 µM. Turning to `O=C(c1cc2cc(Cl)ccc2[nH]1)N1CCCCC1c1cccnc1` (centres undefined), the IC50 was 25 µM.

Consider `c1cc(-c2ncc(-c3ccn[nH]3)s2)ccn1`, for which the IC50 was 20 µM.

In the case of `O=C(c1cnn(-c2ccccc2)n1)N1CCCC(n2ccnc2)C1` (centres undefined), the IC50 was > 40 µM (inactive). Regarding `Cn1cc(CN2CCN(c3ccc4c(c3)CCN(C(=O)[C@H]3C[C@@H]3c3ccccc3)CC4)CC2)cn1`, the half-maximal inhibitory concentration (IC50) was 25 µM.

As to `COc1ccc(-c2ccc3nnc(-c4ccc(O)c(OC)c4)n3c2)cn1`, the IC50 was 2 µM. With `NC(N)=Nc1nc(-c2ccc(NC(N)=NCCN3CCCC3)cc2)cs1`, the IC50 is 0.04 µM. On to `CC(c1cc(Cl)cc(Cl)c1)N(C)c1ncc2c(N)nc(N)nc2n1` (centres undefined), for which the IC50 was > 40 µM (inactive).

In the case of `COc1cccc(-c2c(C)nn(-c3nc(N)nc(-c4ccccn4)n3)c2N)c1`, the IC50 was > 40 µM (inactive). For the molecule `CCCCn1nnnc1CSc1nc(C)cc(C)c1C#N`, the IC50 is > 40 µM (inactive). Turning to `O=C(Nc1nc2ccccc2[nH]1)c1ccc2nc[nH]c2c1`, the IC50 was > 40 µM (inactive). `COc1cccc2sc(CN(C)C(=O)C3CNCCN3c3ccc(F)cc3)c(C)c12` (centres undefined): the IC50 is 0.16 µM. As to `c1ccc2[nH]c(-c3ccc(N4CCCC4)nc3)nc2c1`, the IC50 was 0.79 µM. In the case of `Cc1c(C#N)c([N+](=O)[O-])nn1Cc1cccc(Cl)c1Cl`, the IC50 was 16 µM.

For the molecule `Cc1cc(Nc2cc(C3CC3)[nH]n2)nc(N2CCCC2)n1`, the IC50 is 0.05 µM. `CN(C)CCN(C)Cc1ccc(F)cc1NS(=O)(=O)c1ccc(Cl)c(Cl)c1`: the IC50 is 5 µM.

As for `O=C(CN(Cc1ccccn1)Cc1ccccn1)NCc1ccc(-c2csnn2)cc1`, the concentration for half-maximal inhibition (IC50) was 13 µM. Regarding `O=S(=O)(c1ccccc1C(F)(F)F)N1CCN(Cc2ccc(-n3ccnc3)cc2)CC1`, the IC50 was > 40 µM (inactive). As to `Cc1cc(C)c(C#N)c(SCC(=O)c2ccc3c(c2)OCO3)n1`, the IC50 was 20 µM.

For `O=C(CN(Cc1ccccn1)Cc1ccccn1)NCc1ccc2c(c1)OCO2`, the IC50 was 6.3 µM. Regarding `COc1ccc(CNc2nsc3ccccc23)cc1OC`, the IC50 was 7.9 µM. On to `O=C(Nc1ccc(S(=O)(=O)N2CCCC2)cc1)c1ccc([N+](=O)[O-])s1`, for which the IC50 was 0.16 µM.

For `O=c1ccn(-c2ccc([N+](=O)[O-])cc2Cl)c2ccc(F)cc12`, the IC50 is 25 µM. `N#Cc1c(Oc2cccc(Cl)c2)cccc1[N+](=O)[O-]`: the IC50 was 0.0079 µM.

Take `O=C(c1ccc(Cl)cc1)c1ccc(OC(=O)N2CCOCC2)cc1`: the IC50 is 7.9 µM. The same measure for `O=C(Nc1ccc(C(F)(F)F)cc1)Nc1cccc([N+](=O)[O-])c1`: 2 µM; for `COc1ccc(C(C)(C)C)cc1S(=O)(=O)n1ccnc1`: 40 µM; for `N#Cc1cccc(CN2CCC(N(Cc3cccnc3)C(=O)c3cc(F)c(F)cc3F)CC2)c1`: > 40 µM (inactive). Regarding `Nc1cc(-c2ccc3ncnc(N4CCOCC4)c3c2)cnc1N`, the IC50 was 0.05 µM.

For the molecule `CCN(C)Cc1ccc(N2CCC(NS(=O)(=O)c3ccc4c(c3)CCO4)CC2)nc1`, the IC50 is > 40 µM (inactive). Consider `Cc1nc2c(-c3n[nH]c(-c4ccccc4N)n3)cccn2c1C`, for which the IC50 was 1 µM. Regarding `O=C(c1cccc(Cl)c1Cl)N1CCn2c1nc(-c1ccncc1)cc2=O`, the IC50 was 16 µM. Take `CC(=Cc1ccccc1)CN1CCC(=O)N(Cc2cccnc2)CC1`: the IC50 is > 40 µM (inactive). Consider `O=S(=O)(c1cccc(CSc2nnc(-c3ccc4c(c3)OCO4)o2)c1)N1CCOCC1`, for which the IC50 is 32 µM.

`Cc1cc(NC(=O)CC2CCCCC2)n(-c2nc3c(c(=O)[nH]2)CCC3)n1`: the IC50 is 0.2 µM.

For the molecule `CNS(=O)(=O)c1ccccc1Nc1nc(Nc2ccnn2C)ncc1Cl`, the IC50 was 0.063 µM.

For `O=C1NCc2cccc(Nc3nc(NC4CCC(O)CC4)ncc3Br)c21` (centres undefined), the half-inhibitory concentration (IC50) is 0.063 µM. The same measure for `CC1CN(Cc2ccc(C#N)cc2)CCN1c1ccc(NC(=O)c2ccccc2F)cc1` (centres undefined): > 40 µM (inactive); for `COc1cccc(NS(=O)(=O)c2ccc3[nH]cc(C(=O)NCCC(C)C)c(=O)c3c2)c1`: 0.32 µM; for `Cc1cc2cncn2c(C2CCCCN2C(=O)c2cccs2)n1` (centres undefined): > 40 µM (inactive). For `CC(C)(C)C(=O)Nc1cc(C2CC2)nn1-c1nc2c(c(=O)[nH]1)CCCC2`, the IC50 is 0.16 µM. Regarding `CC(CCc1ccccc1)NC(=O)CN(Cc1ccccn1)Cc1ccccn1` (centres undefined), the IC50 is 10 µM. As to `O=C(Nc1ccccc1)Nc1nc(-c2ccccn2)cs1`, the IC50 was 1 µM.

For the molecule `NC(=O)c1cc(NC(=O)c2ccccc2COc2ccccc2)ccc1Cl`, the IC50 was 16 µM.

Consider `Cc1ccccc1NS(=O)(=O)c1ccc2[nH]cc(C(=O)NC3CCCCC3)c(=O)c2c1`, for which the IC50 is 0.25 µM. In the case of `Cc1cc(-c2cccc3ccccc23)nc2nc(N)nc(N)c12`, the IC50 was 32 µM. `COc1ccc(-c2csc(NC(=O)c3ccc([N+](=O)[O-])s3)n2)cc1OC`: the IC50 is 0.13 µM. As for `Cc1ccc(NC(C)C(=O)Nc2ccc(C#N)cc2)cc1S(=O)(=O)N1CCCCC1` (centres undefined), the IC50 is 7.9 µM. The same measure for `O=C(Cc1ccc2c(c1)CCC2)Nc1n[nH]c(-c2ccccn2)n1`: 20 µM. In the case of `Cc1nc2nc(C)c(Cc3ccc(C(C)C)cc3)c(=O)n2[nH]1`, the IC50 was > 40 µM (inactive). In the case of `COc1ccc(NS(=O)(=O)c2cc(-c3cc(C)[nH]n3)ccc2C)cc1OC`, the IC50 was 0.32 µM.
